What was measured:
K-RAS G12D = target: T1, K-RAS G12D (Homo sapiens, UniProt P01116, G12D); assay: Compound depletion assay, K-RAS G12D; assay type: binding; conditions: G12D protein 20 μM, compound 8 μM, 25° C.
T1 construct: His tag; purchased Stratech
Method in brief: (§1)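 His-tagged K-RAS (20 μM) in 20 mM HEPES pH 7.5, 150 mM NaCl, 1 mM MgCl2 incubated with 8 μM compound (final) at 25 °C with agitation. At 0, 30, 180, 360, 1440 min, samples were acid/acetonitrile-quenched and remaining free compound quantified by LC-MS/MS against propranolol, as percent of time zero.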

K-RAS G12C = target: T2, K-RAS G12C (Homo sapiens, UniProt P01116, G12C); assay: Compound depletion assay, K-RAS G12C; assay type: binding; conditions: G12C protein 20 μM, compound 8 μM, 25° C.
T2 construct: His tag; purchased Stratech
T2 sequence (P01116 1-188 isoform P01116-2 G12C): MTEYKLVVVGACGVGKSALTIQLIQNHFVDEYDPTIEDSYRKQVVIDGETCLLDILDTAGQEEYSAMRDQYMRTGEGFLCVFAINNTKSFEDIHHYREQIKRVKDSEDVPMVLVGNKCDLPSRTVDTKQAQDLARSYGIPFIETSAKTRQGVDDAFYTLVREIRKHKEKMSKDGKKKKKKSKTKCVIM
Method in brief: as §1

T1 sequence (P01116 1-188 isoform P01116-2 G12D): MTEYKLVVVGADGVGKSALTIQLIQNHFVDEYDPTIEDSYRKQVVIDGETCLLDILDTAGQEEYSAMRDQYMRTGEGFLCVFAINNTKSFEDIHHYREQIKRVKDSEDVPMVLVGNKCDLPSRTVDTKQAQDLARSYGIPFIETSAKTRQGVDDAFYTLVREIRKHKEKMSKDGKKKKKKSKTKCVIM

## C=CC(=O)N1CCN(c2cc(C(=O)Nc3cc(O)cc4ccccc34)nc(NC[C@@H]3CCCN3Cc3ccccc3)n2)C[C@@H]1CC#N [Example 44, 2-[[(2S)-1-benzylpyrrolidin-2-yl]methylamino]-6-[(3S)-3-(cyanomethyl)-4-prop-2-enoyl-piperazin-1-yl]-N-(3-hydroxy-1-naphthyl)pyrimidine-4-carboxamide]
K-RAS G12D
  30 min Category (compound remaining at timepoint): A (≥70% compound remaining at timepoint)
  3 hr Category (compound remaining at timepoint): A (≥70% compound remaining at timepoint)
  6 hr Category (compound remaining at timepoint): A (≥70% compound remaining at timepoint)
K-RAS G12C
  30 min Category (compound remaining at timepoint): A (≥70% compound remaining at timepoint)
  3 hr Category (compound remaining at timepoint): B (30%-70% compound remaining at timepoint)
  6 hr Category (compound remaining at timepoint): B (30%-70% compound remaining at timepoint)

## C=CC(=O)N1CCN(c2cc(C(=O)Nc3cc(O)cc4ccccc34)nc(NCC3CCCN3C)n2)C[C@@H]1CC#N (stereo partly drawn) [Example 45, 6-[(3S)-3-(cyanomethyl)-4-prop-2-enoyl-piperazin-1-yl]-N-(3-hydroxy-1-naphthyl)-2-[(1-methylpyrrolidin-2-yl)methylamino]pyrimidine-4-carboxamide]
K-RAS G12D
  30 min Category (compound remaining at timepoint): A (≥70% compound remaining at timepoint)
  3 hr Category (compound remaining at timepoint): A (≥70% compound remaining at timepoint)
  6 hr Category (compound remaining at timepoint): A (≥70% compound remaining at timepoint)
K-RAS G12C
  30 min Category (compound remaining at timepoint): B (30%-70% compound remaining at timepoint)
  3 hr Category (compound remaining at timepoint): C (≤30% compound remaining at timepoint)
  6 hr Category (compound remaining at timepoint): C (≤30% compound remaining at timepoint)

## C=CC(=O)N1CCN(c2cc(C(=O)Nc3cc(O)cc4ccccc34)nc(NC[C@@H]3CCCN3CCO)n2)C[C@@H]1CC#N [Example 46, 6-[(3S)-3-(cyanomethyl)-4-prop-2-enoyl-piperazin-1-yl]-2-[[(2S)-1-(2-hydroxyethyl)pyrrolidin-2-yl]methylamino]-N-(3-hydroxy-1-naphthyl)pyrimidine-4-carboxamide]
K-RAS G12D
  30 min Category (compound remaining at timepoint): A (≥70% compound remaining at timepoint)
  3 hr Category (compound remaining at timepoint): A (≥70% compound remaining at timepoint)
  6 hr Category (compound remaining at timepoint): A (≥70% compound remaining at timepoint)
K-RAS G12C
  30 min Category (compound remaining at timepoint): B (30%-70% compound remaining at timepoint)
  3 hr Category (compound remaining at timepoint): C (≤30% compound remaining at timepoint)
  6 hr Category (compound remaining at timepoint): C (≤30% compound remaining at timepoint)

## C=CC(=O)N1CCN(c2cc(C(=O)Nc3cc(O)cc4ccccc34)nc(OCCC3CCCN3C)n2)C[C@@H]1CC#N (stereo partly drawn) [Example 47, 6-[(3S)-3-(cyanomethyl)-4-prop-2-enoyl-piperazin-1-yl]-N-(3-hydroxy-1-naphthyl)-2-[2-(1-methylpyrrolidin-2-yl)ethoxy]pyrimidine-4-carboxamide]
K-RAS G12D
  30 min Category (compound remaining at timepoint): A (≥70% compound remaining at timepoint)
  3 hr Category (compound remaining at timepoint): A (≥70% compound remaining at timepoint)
  6 hr Category (compound remaining at timepoint): A (≥70% compound remaining at timepoint)
K-RAS G12C
  30 min Category (compound remaining at timepoint): C (≤30% compound remaining at timepoint)
  3 hr Category (compound remaining at timepoint): C (≤30% compound remaining at timepoint)
  6 hr Category (compound remaining at timepoint): C (≤30% compound remaining at timepoint)

## C=CC(=O)N1CCN(c2cc(C(=O)Nc3cc(O)cc4ccccc34)nc(OCC3CCCCN3C)n2)C[C@@H]1CC#N (stereo partly drawn) [Example 48, 6-[(3S)-3-(cyanomethyl)-4-prop-2-enoyl-piperazin-1-yl]-N-(3-hydroxy-1-naphthyl)-2-[(1-methyl-2-piperidyl)methoxy]pyrimidine-4-carboxamide]
K-RAS G12D
  30 min Category (compound remaining at timepoint): A (≥70% compound remaining at timepoint)
  3 hr Category (compound remaining at timepoint): A (≥70% compound remaining at timepoint)
  6 hr Category (compound remaining at timepoint): A (≥70% compound remaining at timepoint)
K-RAS G12C
  30 min Category (compound remaining at timepoint): C (≤30% compound remaining at timepoint)
  3 hr Category (compound remaining at timepoint): C (≤30% compound remaining at timepoint)
  6 hr Category (compound remaining at timepoint): C (≤30% compound remaining at timepoint)

## C=CC(=O)N1CCN(c2cc(C(=O)Nc3cc(O)cc4ccccc34)nc(NCC3CCCCN3C)n2)C[C@@H]1CC#N (stereo partly drawn) [Example 49, 6-[(3S)-3-(cyanomethyl)-4-prop-2-enoyl-piperazin-1-yl]-N-(3-hydroxy-1-naphthyl)-2-[(1-methyl-2-piperidyl)methylamino]pyrimidine-4-carboxamide]
K-RAS G12D
  30 min Category (compound remaining at timepoint): A (≥70% compound remaining at timepoint)
  3 hr Category (compound remaining at timepoint): A (≥70% compound remaining at timepoint)
  6 hr Category (compound remaining at timepoint): A (≥70% compound remaining at timepoint)
K-RAS G12C
  30 min Category (compound remaining at timepoint): B (30%-70% compound remaining at timepoint)
  3 hr Category (compound remaining at timepoint): C (≤30% compound remaining at timepoint)
  6 hr Category (compound remaining at timepoint): C (≤30% compound remaining at timepoint)

## C=CC(=O)N1CCN(c2cc(C(=O)Nc3cc(O)cc4ccccc34)nc(OCC3CCCN(C)C3)n2)C[C@@H]1CC#N (stereo partly drawn) [Example 50, 6-[(3S)-3-(cyanomethyl)-4-prop-2-enoyl-piperazin-1-yl]-N-(3-hydroxy-1-naphthyl)-2-[(1-methyl-3-piperidyl)methoxy]pyrimidine-4-carboxamide]
K-RAS G12D
  30 min Category (compound remaining at timepoint): A (≥70% compound remaining at timepoint)
  3 hr Category (compound remaining at timepoint): A (≥70% compound remaining at timepoint)
  6 hr Category (compound remaining at timepoint): A (≥70% compound remaining at timepoint)
K-RAS G12C
  30 min Category (compound remaining at timepoint): C (≤30% compound remaining at timepoint)
  3 hr Category (compound remaining at timepoint): C (≤30% compound remaining at timepoint)
  6 hr Category (compound remaining at timepoint): C (≤30% compound remaining at timepoint)

## C=CC(=O)N1CCN(c2cc(C(=O)Nc3cc(O)cc4ccccc34)nc(OC[C@@H]3CCCN3CC)n2)C[C@@H]1CC#N [Example 51, 6-[(3S)-3-(cyanomethyl)-4-prop-2-enoyl-piperazin-1-yl]-2-[[(2S)-1-ethylpyrrolidin-2-yl]methoxy]-N-(3-hydroxy-1-naphthyl)pyrimidine-4-carboxamide]
K-RAS G12D
  30 min Category (compound remaining at timepoint): A (≥70% compound remaining at timepoint)
  3 hr Category (compound remaining at timepoint): A (≥70% compound remaining at timepoint)
  6 hr Category (compound remaining at timepoint): A (≥70% compound remaining at timepoint)
K-RAS G12C
  30 min Category (compound remaining at timepoint): C (≤30% compound remaining at timepoint)
  3 hr Category (compound remaining at timepoint): C (≤30% compound remaining at timepoint)
  6 hr Category (compound remaining at timepoint): C (≤30% compound remaining at timepoint)

## C=CC(=O)N1CCN(c2cc(C(=O)Nc3cc(O)cc4ccccc34)nc(OC[C@@H]3CCCN3CCO)n2)C[C@@H]1CC#N [Example 53, 6-[(3S)-3-(cyanomethyl)-4-prop-2-enoyl-piperazin-1-yl]-2-[[(2S)-1-(2-hydroxyethyl)pyrrolidin-2-yl]methoxy]-N-(3-hydroxy-1-naphthyl)pyrimidine-4-carboxamide]
K-RAS G12D
  30 min Category (compound remaining at timepoint): A (≥70% compound remaining at timepoint)
  3 hr Category (compound remaining at timepoint): A (≥70% compound remaining at timepoint)
  6 hr Category (compound remaining at timepoint): A (≥70% compound remaining at timepoint)
K-RAS G12C
  30 min Category (compound remaining at timepoint): C (≤30% compound remaining at timepoint)
  3 hr Category (compound remaining at timepoint): C (≤30% compound remaining at timepoint)
  6 hr Category (compound remaining at timepoint): C (≤30% compound remaining at timepoint)

## C=CC(=O)N1CCN(c2cc(C(=O)Nc3cc(O)cc4ccccc34)nc(OC[C@@H]3CCCN3C(C)C)n2)C[C@@H]1CC#N [Example 54, 6-[(3S)-3-(cyanomethyl)-4-prop-2-enoyl-piperazin-1-yl]-N-(3-hydroxy-1-naphthyl)-2-[[(2S)-1-isopropylpyrrolidin-2-yl]methoxy]pyrimidine-4-carboxamide]
K-RAS G12D
  30 min Category (compound remaining at timepoint): A (≥70% compound remaining at timepoint)
  3 hr Category (compound remaining at timepoint): A (≥70% compound remaining at timepoint)
  6 hr Category (compound remaining at timepoint): A (≥70% compound remaining at timepoint)
K-RAS G12C
  30 min Category (compound remaining at timepoint): C (≤30% compound remaining at timepoint)
  3 hr Category (compound remaining at timepoint): C (≤30% compound remaining at timepoint)
  6 hr Category (compound remaining at timepoint): C (≤30% compound remaining at timepoint)
